In patent US10981911B2, “Imidazopyrrolopyridine as inhibitors of the JAK family of kinases” (Janssen Pharmaceutica NV, priority 2016, dated 2021):
pIC50: −log10 of the molar value.

Experiments:
Format in all cases: biochemical
[1] = molecular target: JAK1-JH1JH2 (Homo sapiens (Human), UniProt P23458); experiment: Enzymatic inhibition assay (RapidFire HTMS), JAK1; conditions: 12.5 μM ATP, 200 μM substrate; read-out: JAK1-JH2JH1 IC50
Procedure, shortened: (§1)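 Quenched with 0.5% TFA plus internal-standard peptide; phosphorylated product quantified by RapidFire C4 SPE–ESI-MS, 11-point 1:3 or 1:4 dilutions in duplicate.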

[2] = molecular target: JAK2-JH1JH2 (Homo sapiens (Human), UniProt O60674); experiment: Enzymatic inhibition assay (RapidFire HTMS), JAK2; conditions: 30 μM ATP, 40 μM substrate
Procedure, shortened: as §1

[3] = molecular target: JAK3-JH1JH2 (Homo sapiens (Human), UniProt P52333); experiment: Enzymatic inhibition assay (RapidFire HTMS), JAK3; conditions: 150 μM ATP, 40 μM substrate
Procedure, shortened: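 Compounds tested in duplicate over 11-point 1:3 or 1:4 dilution series; no-enzyme wells as negative control. After 45 min at 25 °C, TFA quench with internal standard, and phosphorylated product quantified by RapidFire–QTrap mass spectrometry relative to the uninhibited reaction.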

[4] = molecular target: Tyk2-JH1JH2 (Homo sapiens (Human), UniProt P29597, C1142A/C936A); experiment: Enzymatic inhibition assay (RapidFire HTMS), Tyk2; conditions: 50 μM ATP, 200 μM substrate
Procedure, shortened: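 Compounds were tested in duplicate as 11-point 1:3 or 1:4 DMSO dilutions (≤0.25% DMSO final) in 20 μL reactions at 25 °C for 90 min, with Tyk2 pre-incubated 30 min with 2 mM ATP. Reactions were quenched with TFA plus internal standard peptide, and phosphorylated product was quantified by RapidFire C4 SPE–ESI MS.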

Chain of Tyk2-JH1JH2 (P29597 580-1182 C936A/C1142A): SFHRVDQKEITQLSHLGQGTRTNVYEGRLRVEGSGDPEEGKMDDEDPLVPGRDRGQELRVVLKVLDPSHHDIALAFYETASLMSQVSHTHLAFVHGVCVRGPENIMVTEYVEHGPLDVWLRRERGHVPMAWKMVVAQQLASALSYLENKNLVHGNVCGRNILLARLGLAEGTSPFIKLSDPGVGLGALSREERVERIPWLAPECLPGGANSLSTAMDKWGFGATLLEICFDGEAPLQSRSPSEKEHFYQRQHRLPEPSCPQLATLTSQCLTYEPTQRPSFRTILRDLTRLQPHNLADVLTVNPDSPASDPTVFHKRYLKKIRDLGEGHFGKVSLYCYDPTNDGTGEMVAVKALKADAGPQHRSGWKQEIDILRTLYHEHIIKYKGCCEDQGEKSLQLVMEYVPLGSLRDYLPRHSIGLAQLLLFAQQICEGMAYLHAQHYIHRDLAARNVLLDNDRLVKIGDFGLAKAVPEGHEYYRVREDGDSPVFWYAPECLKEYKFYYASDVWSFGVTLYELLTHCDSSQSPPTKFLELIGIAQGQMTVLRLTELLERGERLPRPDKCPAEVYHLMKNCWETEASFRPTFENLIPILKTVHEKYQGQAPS
Chain of JAK1-JH1JH2 (P23458 574-1154): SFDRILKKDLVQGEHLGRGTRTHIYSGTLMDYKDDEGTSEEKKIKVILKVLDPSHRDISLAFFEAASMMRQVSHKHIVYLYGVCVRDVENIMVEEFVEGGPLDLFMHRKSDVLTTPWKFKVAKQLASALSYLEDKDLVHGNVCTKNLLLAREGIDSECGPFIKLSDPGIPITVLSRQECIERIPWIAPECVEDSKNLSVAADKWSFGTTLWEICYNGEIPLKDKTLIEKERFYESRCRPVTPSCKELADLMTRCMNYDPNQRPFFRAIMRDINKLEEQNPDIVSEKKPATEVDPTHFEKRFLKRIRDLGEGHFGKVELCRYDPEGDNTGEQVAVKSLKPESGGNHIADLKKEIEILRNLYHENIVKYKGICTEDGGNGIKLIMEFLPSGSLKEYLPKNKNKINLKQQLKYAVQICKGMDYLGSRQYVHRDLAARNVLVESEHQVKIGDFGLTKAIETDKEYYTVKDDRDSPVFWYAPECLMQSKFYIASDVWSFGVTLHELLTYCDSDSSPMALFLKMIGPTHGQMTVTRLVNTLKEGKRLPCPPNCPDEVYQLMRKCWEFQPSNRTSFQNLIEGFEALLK
Chain of JAK2-JH1JH2 (O60674 532-1132): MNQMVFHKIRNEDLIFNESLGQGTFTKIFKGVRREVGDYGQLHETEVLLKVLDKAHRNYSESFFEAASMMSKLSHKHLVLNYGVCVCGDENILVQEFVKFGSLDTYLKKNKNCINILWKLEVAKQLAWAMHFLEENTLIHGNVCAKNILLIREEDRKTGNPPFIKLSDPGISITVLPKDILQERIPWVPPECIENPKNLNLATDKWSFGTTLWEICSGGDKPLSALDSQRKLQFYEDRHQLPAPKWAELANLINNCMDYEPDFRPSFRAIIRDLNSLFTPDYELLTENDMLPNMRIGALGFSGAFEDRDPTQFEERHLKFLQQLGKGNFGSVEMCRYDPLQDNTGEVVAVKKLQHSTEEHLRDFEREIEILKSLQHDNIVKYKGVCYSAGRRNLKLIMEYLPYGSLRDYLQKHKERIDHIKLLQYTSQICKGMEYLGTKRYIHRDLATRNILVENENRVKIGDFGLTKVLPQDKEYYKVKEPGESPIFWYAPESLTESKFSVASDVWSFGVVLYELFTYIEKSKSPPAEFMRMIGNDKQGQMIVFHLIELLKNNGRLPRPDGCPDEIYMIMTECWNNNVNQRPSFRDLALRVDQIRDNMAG
Chain of JAK3-JH1JH2 (P52333 512-1124): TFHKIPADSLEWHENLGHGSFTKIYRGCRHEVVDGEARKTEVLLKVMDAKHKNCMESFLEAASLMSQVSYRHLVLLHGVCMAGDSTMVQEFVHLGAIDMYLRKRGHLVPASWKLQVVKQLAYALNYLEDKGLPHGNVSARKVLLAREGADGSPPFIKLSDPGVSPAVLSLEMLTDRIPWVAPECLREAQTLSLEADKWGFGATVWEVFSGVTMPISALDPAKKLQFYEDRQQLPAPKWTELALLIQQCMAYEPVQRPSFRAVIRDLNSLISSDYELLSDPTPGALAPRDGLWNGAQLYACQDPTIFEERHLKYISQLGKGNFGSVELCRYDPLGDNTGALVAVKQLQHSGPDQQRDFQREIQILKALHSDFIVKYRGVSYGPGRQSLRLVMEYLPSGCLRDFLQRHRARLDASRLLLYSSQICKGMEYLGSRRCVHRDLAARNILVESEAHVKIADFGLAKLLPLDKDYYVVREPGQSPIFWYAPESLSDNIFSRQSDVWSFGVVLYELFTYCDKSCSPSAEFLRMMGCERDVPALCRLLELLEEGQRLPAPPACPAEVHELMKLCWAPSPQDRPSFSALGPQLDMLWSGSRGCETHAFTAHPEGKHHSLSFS

Q: With `N#CC[C@H]1CC[C@H](n2c(C(=O)N3CCC(O)(c4ccccc4)C3)nc3cnc4[nH]ccc4c32)CC1` (stereo partly drawn) [Ex. 50, 2-((1r,4r)-4-(2-(3-Hydroxy-3-phenylpyrrolidine-1-carbonyl)imidazo[4,5-d]pyrrolo[2,3-b]pyridin-1(6H)-yl)cyclohexyl)acetonitrile] as the molecule, how does the pIC50 [1] read?
A: 9.70

Q: What about the pIC50 [2] of the same molecule?
A: 8.40

Q: And the pIC50 [3]?
A: 7.00

Q: What about the pIC50 [4] of the same molecule?
A: 7.68

Q: `N#CCc1ccc(NC(=O)Cc2nc3cnc4[nH]ccc4c3n2[C@H]2CC[C@H](CC#N)CC2)cc1` [Ex. 8, 2-(1-((1r,4r)-4-(Cyanomethyl)cyclohexyl)-1,6-dihydroimidazo[4,5-d]pyrrolo[2,3-b]pyridin-2-yl)-N-(4-(cyanomethyl)phenyl)acetamide] was tested. Which pIC50 [1] did it give?
A: 10.00

Q: And the pIC50 [2]?
A: 9.30

Q: What about the pIC50 [3] of the same molecule?
A: 7.89

Q: What about the pIC50 [4] of the same molecule?
A: 9.15

Q: Which results are given for `COCCOCCOCCOCCc1nc2cnc3[nH]ccc3c2n1[C@H]1CC[C@H](CC#N)CC1` [Ex. 192, 2-((1r,4r)-4-(2-(2,5,8,11-Tetraoxatridecan-13-yl)imidazo[4,5-d]pyrrolo[2,3-b]pyridin-1(6H)-yl)cyclohexyl)acetonitrile]?
A: pIC50 [1]: 9.00; pIC50 [2]: 7.16; pIC50 [3]: 5.95; pIC50 [4]: 7.59

Q: What does the source list for `N#CCCS(=O)(=O)NCc1nc2cnc3[nH]ccc3c2n1[C@H]1CC[C@H](CC#N)CC1` [Ex. 13, 2-Cyano-N-((1-((1r,4r)-4-(cyanomethyl)cyclohexyl)-1,6-dihydroimidazo[4,5-d]pyrrolo[2,3-b]pyridin-2-yl)methyl)ethanesulfonamide]?
A: pIC50 [1]: 10.00; pIC50 [2]: 8.15; pIC50 [3]: 6.19; pIC50 [4]: 8.48

Q: What does the source list for `COCc1nc2cnc3[nH]ccc3c2n1[C@H]1CC[C@H](CC#N)CC1` [Ex. 113, 2-((1r,4r)-4-(2-(Methoxymethyl)imidazo[4,5-d]pyrrolo[2,3-b]pyridin-1(6H)-yl)cyclohexyl)acetonitrile]?
A: pIC50 [1]: 9.22; pIC50 [2]: 7.99; pIC50 [3]: 6.49; pIC50 [4]: 7.95

Q: How did the pIC50 [1] turn out when `N#CC[C@H]1CC[C@H](n2c(CC(=O)NCCO)nc3cnc4[nH]ccc4c32)CC1` [Ex. 29, 2-(1-((1r,4r)-4-(Cyanomethyl)cyclohexyl)-1,6-dihydroimidazo[4,5-d]pyrrolo[2,3-b]pyridin-2-yl)-N-(2-hydroxyethyl)acetamide] was run?
A: 10.00

Q: And the pIC50 [2]?
A: 8.14

Q: And the pIC50 [3]?
A: 7.17

Q: What about the pIC50 [4] of the same molecule?
A: 8.42

Q: What does the source list for `N#CC[C@H]1CC[C@H](n2c(CC(=O)NC3CCCCC3)nc3cnc4[nH]ccc4c32)CC1` [Ex. 28, 2-(1-((1r,4r)-4-(Cyanomethyl)cyclohexyl)-1,6-dihydroimidazo[4,5-d]pyrrolo[2,3-b]pyridin-2-yl)-N-cyclohexylacetamide]?
A: pIC50 [1]: 10.00; pIC50 [2]: 8.62; pIC50 [3]: 7.49; pIC50 [4]: 8.46

Q: With `C[S@](=O)(=NCc1nc2cnc3[nH]ccc3c2n1[C@H]1CC[C@H](CC#N)CC1)c1ccccc1` [Ex. 162, 2-((1r,4r)-4-(2-((((R)-Methyl(oxo)(phenyl)-λ^6-sulfanylidene)amino)methyl)imidazo[4,5-d]pyrrolo[2,3-b]pyridin-1(6H)-yl)cyclohexyl)acetonitrile] as the molecule, how does the pIC50 [1] read?
A: 8.80

Q: What about the pIC50 [2] of the same molecule?
A: 6.95

Q: And the pIC50 [3]?
A: 5.64

Q: And the pIC50 [4]?
A: 7.09

Q: With `N#CC[C@H]1CC[C@H](n2c(CC(=O)NCc3ncc[nH]3)nc3cnc4[nH]ccc4c32)CC1` [Ex. 36, N-((1H-imidazol-2-yl)methyl)-2-(1-((1r,4r)-4-(cyanomethyl)cyclohexyl)-1,6-dihydroimidazo[4,5-d]pyrrolo[2,3-b]pyridin-2-yl)acetamide] as the molecule, how does the pIC50 [1] read?
A: 9.70

Q: What about the pIC50 [2] of the same molecule?
A: 9.10

Q: What about the pIC50 [3] of the same molecule?
A: 7.92

Q: What about the pIC50 [4] of the same molecule?
A: 8.66

Q: How did the pIC50 [1] turn out when `N#CCC(=O)N1CC(c2nc3cnc4[nH]ccc4c3n2[C@H]2CC[C@H](CC#N)CC2)C1` [Ex. 160, 3-(3-(1-((1r,4r)-4-(Cyanomethyl)cyclohexyl)-1,6-dihydroimidazo[4,5-d]pyrrolo[2,3-b]pyridin-2-yl)azetidin-1-yl)-3-oxopropanenitrile] was run?
A: 8.82

Q: And the pIC50 [2]?
A: 7.06

Q: And the pIC50 [3]?
A: 5.97

Q: And the pIC50 [4]?
A: 7.28

Q: Which results are given for `N#CC[C@H]1CC[C@H](n2c(CC(=O)N3CC(O)C3)nc3cnc4[nH]ccc4c32)CC1` [Ex. 18, 2-((1r,4r)-4-(2-(2-(3-Hydroxyazetidin-1-yl)-2-oxoethyl)imidazo[4,5-d]pyrrolo[2,3-b]pyridin-1(6H)-yl)cyclohexyl)acetonitrile]?
A: pIC50 [1]: 10.00; pIC50 [2]: 7.45; pIC50 [3]: 6.27; pIC50 [4]: 8.19

Q: `N#CC[C@H]1CC[C@H](n2c(CNC(N)=O)nc3cnc4[nH]ccc4c32)CC1` [Ex. 40, 1-((1-((1r,4r)-4-(Cyanomethyl)cyclohexyl)-1,6-dihydroimidazo[4,5-d]pyrrolo[2,3-b]pyridin-2-yl)methyl)urea] was tested. Which pIC50 [1] did it give?
A: > 9.70

Q: What about the pIC50 [2] of the same molecule?
A: 9.00

Q: What about the pIC50 [3] of the same molecule?
A: 7.33

Q: And the pIC50 [4]?
A: 9.52

Q: `N#CC[C@H]1CC[C@H](n2c(CC(=O)NCc3ccc(OC(F)F)cc3)nc3cnc4[nH]ccc4c32)CC1` [Ex. 79, 2-(1-((1r,4r)-4-(cyanomethyl)cyclohexyl)-1,6-dihydroimidazo[4,5-d]pyrrolo[2,3-b]pyridin-2-yl)-N-(4-(difluoromethoxy)benzyl)acetamide] was tested. Which pIC50 [1] did it give?
A: 9.40

Q: What about the pIC50 [2] of the same molecule?
A: 7.97

Q: And the pIC50 [3]?
A: 6.65

Q: What about the pIC50 [4] of the same molecule?
A: 7.88

Q: How did the pIC50 [1] turn out when `N#CC[C@H]1CC[C@H](n2c(C(=O)NCCO)nc3cnc4[nH]ccc4c32)CC1` [Ex. 114, 1-((1r,4r)-4-(Cyanomethyl)cyclohexyl)-N-(2-hydroxyethyl)-1,6-dihydroimidazo[4,5-d]pyrrolo[2,3-b]pyridine-2-carboxamide] was run?
A: 9.22

Q: What about the pIC50 [2] of the same molecule?
A: 8.32

Q: And the pIC50 [3]?
A: 6.99

Q: And the pIC50 [4]?
A: 7.90

Q: With `N#CC[C@H]1CC[C@H](n2c(-c3nn[nH]n3)nc3cnc4[nH]ccc4c32)CC1` [Ex. 63, 2-((1r,4r)-4-(2-(2H-Tetrazol-5-yl)imidazo[4,5-d]pyrrolo[2,3-b]pyridin-1(6H)-yl)cyclohexyl)acetonitrile] as the molecule, how does the pIC50 [1] read?
A: 9.52

Q: And the pIC50 [2]?
A: 8.66

Q: What about the pIC50 [3] of the same molecule?
A: 7.24

Q: And the pIC50 [4]?
A: 7.72

Q: What does the source list for `C[Si](C)(C)CNC(=O)Cc1nc2cnc3[nH]ccc3c2n1[C@H]1CC[C@H](CC#N)CC1` [Ex. 99, 2-(1-((1r,4r)-4-(Cyanomethyl)cyclohexyl)-1,6-dihydroimidazo[4,5-d]pyrrolo[2,3-b]pyridin-2-yl)-N-((trimethylsilyl)methyl)acetamide]?
A: pIC50 [1]: 9.30; pIC50 [2]: 7.51; pIC50 [3]: 6.56; pIC50 [4]: 7.53

Q: Which results are given for `N#CCCNC(=O)c1nc2cnc3[nH]ccc3c2n1[C@H]1CC[C@H](CC#N)CC1` [Ex. 138, N-(2-Cyanoethyl)-1-((1r,4r)-4-(cyanomethyl)cyclohexyl)-1,6-dihydroimidazo[4,5-d]pyrrolo[2,3-b]pyridine-2-carboxamide]?
A: pIC50 [1]: 9.05; pIC50 [2]: 7.72; pIC50 [3]: 6.71; pIC50 [4]: 7.73

Q: Which results are given for `[H]/N=C(\c1ccccc1)N(O)Cc1nc2cnc3[nH]ccc3c2n1[C@H]1CC[C@H](CC#N)CC1` [Ex. 17A, (E)-N-((1-((1r,4r)-4-(Cyanomethyl)cyclohexyl)-1,6-dihydroimidazo[4,5-d]pyrrolo[2,3-b]pyridin-2-yl)methyl)-N-hydroxybenzimidamide]?
A: pIC50 [1]: 10.00; pIC50 [2]: 8.92; pIC50 [3]: 7.18; pIC50 [4]: 8.85

Q: How did the pIC50 [1] turn out when `N#CC[C@H]1CC[C@H](n2c(CC(=O)Nc3ccccc3)nc3cnc4[nH]ccc4c32)CC1` [Ex. 20, 2-(1-((1r,4r)-4-(Cyanomethyl)cyclohexyl)-1,6-dihydroimidazo[4,5-d]pyrrolo[2,3-b]pyridin-2-yl)-N-phenylacetamide] was run?
A: 10.00

Q: What about the pIC50 [2] of the same molecule?
A: 8.92

Q: And the pIC50 [3]?
A: 7.69

Q: What about the pIC50 [4] of the same molecule?
A: 8.72

Q: How did the pIC50 [1] turn out when `C#Cc1ccc(C(=O)c2ccc(CCc3nc4cnc5[nH]ccc5c4n3[C@H]3CC[C@H](CC#N)CC3)cc2)cc1` [Ex. 170, 2-((1r,4r)-4-(2-(4-(4-Ethynylbenzoyl)phenethyl)imidazo[4,5-d]pyrrolo[2,3-b]pyridin-1(6H)-yl)cyclohexyl)acetonitrile] was run?
A: 8.82

Q: And the pIC50 [2]?
A: 7.09

Q: And the pIC50 [3]?
A: < 4.90

Q: And the pIC50 [4]?
A: 7.58

Q: How did the pIC50 [1] turn out when `C#Cc1ccc(C(=O)c2ccc(COCc3nc4cnc5[nH]ccc5c4n3[C@H]3CC[C@H](CC#N)CC3)cc2)cc1` [Ex. 126, 2-((1r,4r)-4-(2-(((4-(4-Ethynylbenzoyl)benzyl)oxy)methyl)imidazo[4,5-d]pyrrolo[2,3-b]pyridin-1(6H)-yl)cyclohexyl)acetonitrile] was run?
A: 9.15

Q: What about the pIC50 [2] of the same molecule?
A: 7.71

Q: And the pIC50 [3]?
A: 6.50

Q: And the pIC50 [4]?
A: 7.85

Q: Which results are given for `COC1CCN(C(=O)c2nc3cnc4[nH]ccc4c3n2[C@H]2CC[C@H](CC#N)CC2)CC1` [Ex. 176, 2-((1r,4r)-4-(2-(4-Methoxypiperidine-1-carbonyl)imidazo[4,5-d]pyrrolo[2,3-b]pyridin-1(6H)-yl)cyclohexyl)acetonitrile]?
A: pIC50 [1]: 8.59; pIC50 [2]: 6.80; pIC50 [3]: 5.49; pIC50 [4]: 6.89

Q: How did the pIC50 [1] turn out when `N#CCC12CCC(n3c(CC(=O)NCC4CCCCC4)nc4cnc5[nH]ccc5c43)(CC1)CC2` [Ex. 208, 2-(1-(4-(Cyanomethyl)bicyclo[2.2.2]octan-1-yl)-1,6-dihydroimidazo[4,5-d]pyrrolo[2,3-b]pyridin-2-yl)-N-(cyclohexylmethyl)acetamide] was run?
A: 8.12

Q: What about the pIC50 [2] of the same molecule?
A: 6.35

Q: And the pIC50 [3]?
A: 6.27

Q: What about the pIC50 [4] of the same molecule?
A: 6.15

Q: Which results are given for `N#CC[C@H]1CC[C@H](n2c(CC(=O)Nc3ccc(CO)cc3)nc3cnc4[nH]ccc4c32)CC1` [Ex. 7, 2-(1-((1r,4r)-4-(Cyanomethyl)cyclohexyl)-1,6-dihydroimidazo[4,5-d]pyrrolo[2,3-b]pyridin-2-yl)-N-(4-(hydroxymethyl)phenyl)acetamide]?
A: pIC50 [1]: 10.00; pIC50 [2]: 9.22; pIC50 [3]: 7.88; pIC50 [4]: 9.05
